Assay results as given in patent publication US9464064B2, “HCV helicase inhibitors and methods of use thereof” (University of Kansas, priority 2011, dated 2016).
Values joined by “and” are separate entries in the source; they are usually repeats but may differ in a detail not shown here. Equal values may be shown once. Read-outs that look alike come from different tables or passages of the source.

Assays:
NS3h_2a(JFH1) = biological target: T1, NS3h_2a(JFH1) (Hepatitis C virus genotype 2a, UniProt Q99IB8); assay: MBHA, DNA substrate, genotype 2a helicase; type: biochemical, hepatitis C virus genotype 2a(JFH1)
T1 construct: truncated C-terminally His-tagged NS3 proteins lacking the N-terminal protease, called NS3h; His-tag (C); made in house
T1 sequence (Q99IB8 1196-1661): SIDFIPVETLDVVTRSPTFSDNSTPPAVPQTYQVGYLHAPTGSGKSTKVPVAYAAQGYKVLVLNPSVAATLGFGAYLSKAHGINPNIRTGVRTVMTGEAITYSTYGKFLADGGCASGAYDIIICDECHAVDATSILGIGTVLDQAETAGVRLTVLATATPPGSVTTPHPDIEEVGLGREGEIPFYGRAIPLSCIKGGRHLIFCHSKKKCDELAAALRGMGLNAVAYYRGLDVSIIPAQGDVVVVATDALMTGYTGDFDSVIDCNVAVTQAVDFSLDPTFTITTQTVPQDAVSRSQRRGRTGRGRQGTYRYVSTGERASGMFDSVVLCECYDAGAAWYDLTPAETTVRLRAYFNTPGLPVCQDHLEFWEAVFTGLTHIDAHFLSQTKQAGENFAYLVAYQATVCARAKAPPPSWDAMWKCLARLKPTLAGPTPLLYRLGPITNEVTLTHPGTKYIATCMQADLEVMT
Method in brief: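 Inhibition of DNA unwinding by C-terminally His-tagged recombinant NS3 helicase domain (no protease) from HCV genotype 2a JFH1 strain, measured by molecular beacon-based helicase assay (MBHA).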

Huh-7.5 cells = assay: Cell viability assay ([…]-GLO); type: cell-based, human; conditions: for Cell viability (% viable): 10 μM compound, triplicate, average ± SD
Method in brief: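 Viability was read by luminescence, integrated for 1 second, after 30 min at 23° C. in […]-GLO reagent mixed equally with growth medium. Before lysis, Huh-7.5 cells had received compound for 72 h and were rinsed with PBS.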

[1] = biological target: T2, HCV NS3 helicase NS3h_1b(con1) (Hepatitis C virus genotype 1b, UniProt Q9WMX2); assay: biochemical; type: biochemical, hepatitis C virus genotype 1b(con1)
T2 construct: truncated C-terminally His-tagged NS3 proteins lacking the N-terminal protease, called NS3h; His-tag (C); made in house
T2 sequence (Q9WMX2 1192-1657): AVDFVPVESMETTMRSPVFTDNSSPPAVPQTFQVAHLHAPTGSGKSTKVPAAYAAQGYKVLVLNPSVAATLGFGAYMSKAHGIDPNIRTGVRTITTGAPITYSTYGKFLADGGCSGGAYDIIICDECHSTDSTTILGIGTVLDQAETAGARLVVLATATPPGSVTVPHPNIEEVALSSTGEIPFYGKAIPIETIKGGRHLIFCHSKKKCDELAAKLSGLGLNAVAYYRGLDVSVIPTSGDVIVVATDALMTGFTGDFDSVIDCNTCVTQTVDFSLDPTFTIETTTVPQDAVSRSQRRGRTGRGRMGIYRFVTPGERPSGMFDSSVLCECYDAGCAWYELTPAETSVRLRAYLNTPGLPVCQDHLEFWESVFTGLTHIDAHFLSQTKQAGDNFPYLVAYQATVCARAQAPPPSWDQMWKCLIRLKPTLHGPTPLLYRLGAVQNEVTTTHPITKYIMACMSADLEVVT
Method in brief: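 Molecular beacon helicase assay with His-tagged recombinant NS3 and a Cy5/IBRQ-labelled partially duplex DNA substrate (25 bp) or Tye665-labelled RNA substrate (19 bp). Reactions started with 1 mM ATP. Screening read fluorescence before and 30 min after ATP (ex 643/em 670 nm). For IC50, 5% v/v DMSO was present, initial velocities came from first-order decay fits, and a Hill equation was applied.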

[2] = genotype 2a (JFH1), read-out: Target Potency MBHA (IC50 avg., μM) 2a (JFH1) (converted)
[3] = MBHA, DNA unwinding, mean ± SD of three titrations, read-out: Helicase IC50
[4] = genotype 1b (con1), read-out: Target Potency MBHA (IC50 avg., μM) 1b (con1)
[5] = standard HCV helicase MBHA (Table 9), read-out: DNA Unwinding IC50

| SMILES | IC50 (NS3h_2a(JFH1); Target Potency MBHA (IC50 avg., μM) 2a (JFH1), genotype 2a (JFH1)) | Cell Viability (% @ 10 μM) (Huh-7.5 cells) | Cell viability (% viable) (Huh-7.5 cells) | IC50 ([1]; DNA Unwinding IC50, standard HCV helicase MBHA (Table 9)) | IC50 ([1]; Helicase IC50, MBHA, DNA unwinding, mean ± SD of three titrations) | IC50 ([1]; Target Potency MBHA (IC50 avg., μM) 1b (con1), genotype 1b (con1)) | IC50 (NS3h_2a(JFH1); DNA-based MBHA, genotype 2a(JFH1), read-out: DNA Helicase NS3h_2a IC50 (μM) ± SD) | IC50 (NS3h_2a(JFH1); [2]) | IC50 ([1]; DNA-based MBHA, genotype 1b, read-out: DNA Helicase NS3h_1b IC50 (μM) ± SD) | IC50 [1, 3] | IC50 [1, 4] | IC50 [1, 5] |
| --- | --- | --- | --- | --- | --- | --- | --- | --- | --- | --- | --- | --- |
| Cc1ccc2nc(-c3ccc4nc(-c5ccc(NC(=O)c6ccc(Cl)cc6)cc5)sc4c3)sc2c1S(=O)(=O)O [Compound 10, 2′-(4-(4-chlorobenzamido)phenyl)-6-methyl-[2,6′-bibenzo[d]thiazole]-7-sulfonic acid] | 2.3 ± 0.5 µM | 84 ± 6% | 84 ± 6% | 3 µM | 3.4 ± 0.3 µM | 3.4 ± 0.3 µM | – | – | – | – | – | – |
| Cc1ccc2nc(-c3ccc4nc(-c5ccc(NC(=O)c6ccc7ccccc7c6)cc5)sc4c3)sc2c1S(=O)(=O)O [Compound 33, 2′-(4-(2-naphthamido)phenyl)-6-methyl-[2,6′-bibenzo[d]thiazole]-7-sulfonic acid] | – | 99 ± 11% | – | – | – | – | 2 ± 0.6 µM | 4.4 µM | 3 ± 0.7 µM | 2.7 ± 0.7 µM | 3.6 µM | 4 µM |
| Cc1ccc2nc(-c3ccc4nc(-c5ccc(NC(=O)c6ccccc6C(F)(F)F)cc5)sc4c3)sc2c1S(=O)(=O)O [Compound 19, 6-methyl-2′-(4-(2-(trifluoromethyl)benzamido)phenyl)-[2,6′-bibenzo[d]thiazole]-7-sulfonic acid] | – | 112 ± 1% | 112 ± 1% | – | – | – | – | 24.3 ± 9 µM | – | 14 ± 1 µM | 14.1 ± 1 µM | 14 ± 1 µM |
| COC(=O)c1ccc(C(=O)Nc2ccc(-c3nc4ccc(-c5nc6ccc(C)c(S(=O)(=O)O)c6s5)cc4s3)cc2)cc1 [Compound 9, 2′-(4-(4-(methoxycarbonyl)benzamido)phenyl)-6-methyl-[2,6′-bibenzo[d]thiazole]-7-sulfonic acid] | – | 101 ± 8% | 101 ± 8% | – | – | – | – | 2.4 ± 0.6 µM | – | 9.7 ± 4.6 µM | 9.7 ± 4.6 µM | 10 ± 5 µM |
| Cc1ccc2nc(-c3ccc4nc(-c5ccc(NC(=O)c6ccc7nc(-c8ccc(NC(=O)OCC9c%10ccccc%10-c%10ccccc%109)cc8)sc7c6)cc5)sc4c3)sc2c1S(=O)(=O)O.N [Compound 36] | – | 95 ± 3% and 90 ± 4% | 90 ± 4% | – | – | – | – | 1.9 µM | – | 4 ± 2.4 µM | 4 ± 2.4 µM | 4 ± 2 µM |
